Test results published in patent US20220372013A2, “PIPERIDINE-2,6-DIONE DERIVATIVES AND CROHN'S DISEASE TREATING” (Tianjin Hemay Pharmaceutical Sci-Tech Co., Ltd, priority 2016, published 2022).
Where two headings read alike, the source gives them in different places. Marks after values point to notes of the source that are not given here.

Legend:
mice = assay: Biological Example 5: acute toxicity experiment of single oral administration in mice; format: in vivo; conditions: single oral 1000 mg/Kg, Mean ± SD
Method: The mice were fasted one day before the experiment. On the day of the experiment, 6 mice (ICR mice, body weight of 19-21 g, three females and three males) were selected in each experiment group. First of all, one female and one male were selected to orally give 1000 mg/Kg, and observed for 5-10 minutes. If there were no obvious side effects, the remaining 4 animals were orally given the same dose, and observed for 10-15 minutes. If no animal died, the animals were placed in a box to balancedly feed for 7 days. The state was observed and the body weight was recorded daily.
Observation Indexes within 0-15 Minutes after Administration
Activity: restlessness, hyperactivity
Nervous system response: tremor, spasm, convulsion, ataxia, posture abnormality, etc.
Autonomic nerve: exophthalmos, salivation, tears, urination (hematuria), diarrhea, piloerection, breathing, etc.
State of Animal: lethargy, hyperactivity, excitement, hair loss, diarrhea, abnormal behavior, death, etc.

[1] = system: DNBS-Induced Inflammatory Bowel Disease Models in Rats; assay: Biological Example 4: DNBS-induced inflammatory bowel disease models in rats; format: in vivo, Wistar rats; conditions: 30 mg/Kg i.g. qd × 7; for Adhesion Degree of Colon / Colon weight to length ratio / Ulcer area of colon / inhibition in vivo at 30 mg/kg: day 7; for Body weight: Mean ± SD; for inhibition in vivo at 30 mg/kg: Rattus norvegicus, po, 168 h
Method: 102 male Wistar rats were fasted for 72 hours. A 5% glucose injection was administered subcutaneously twice during fasting. 88 rats with normal conditions and moderate body weight were selected from the fasting rats. The animals were randomly divided into 11 groups according to the body weight (see Table 11. Grouped Table).
The animals were anesthetized with ether after 72 hours fasting. A specially made gavage device was slowly inserted into the enteric cavity at 8 cm from the anus. The model control group and each test group were administered with 0.5 mL of 50 mg/mL DNBS in 30% ethanol solution. The normal control group was administered with 0.5 mL of 30% ethanol solution. The animals were inverted in anesthesia for 15 minutes. The day when the model was prepared was day 0 of the experiment. After 4 hours of DNBS induction, the corresponding drug or the corresponding volume of 1% CMC-Na was administered once per day. On day 7 of the experiment, the animals were euthanized to score the colon adhesion degree, measure the length of colon and ulcer area, weigh colon and calculate the colon weight to length ratio.
One-way ANOVA analysis of the length of colon and colon weight per length of rats was performed by SPSS22. Statistical analyses between groups were performed. The adhesion degree was scored. Mann-Whitney U non-parametric test was performed on ulcer area. Statistical analyses between groups were performed.
Calculation Formula of Inhibitory rate of weight increase per length: (Colon weight to length ratio in model group−Colon weight to length ratio in administration group)/(Colon weight to length ratio in model group−Colon weight to length ratio in blank group)

[2] = read-out: Inhibitory rate of colon adhesion
[3] = read-out: Inhibitory rate of ulcer area of colon
[4] = read-out: Inhibitory rate of weight increase per length

CNc1cccc2c1C(=O)N(C1CCC(=O)N(CCOC)C1=O)C2=O (centres unmarked) [Example 2, 4-methylamino-2-(1-(2-methoxyethyl)-2,6-dioxopiperidin-3-yl)isoindolin-1,3-dione]
Daily Body Weight (mice; Female mice, Day 1): 19.2 ± 0.5 g
Daily Body Weight (mice; Female mice, Day 2): 22.7 ± 0.6 g
Daily Body Weight (mice; Female mice, Day 3): 23.2 ± 0.5 g
Daily Body Weight (mice; Female mice, Day 4): 23.2 ± 0.5 g
Daily Body Weight (mice; Female mice, Day 5): 24.4 ± 0.2 g
Daily Body Weight (mice; Female mice, Day 6): 24.6 ± 1.1 g
Daily Body Weight (mice; Female mice, Day 7): 24.5 ± 1.9 g
Daily Body Weight (mice; Male mice, Day 1): 18.6 ± 0.5 g
Daily Body Weight (mice; Male mice, Day 2): 24.1 ± 0.4 g
Daily Body Weight (mice; Male mice, Day 3): 24.7 ± 0.2 g
Daily Body Weight (mice; Male mice, Day 4): 24.7 ± 0.2 g
Daily Body Weight (mice; Male mice, Day 5): 26.2 ± 0.6 g
Daily Body Weight (mice; Male mice, Day 6): 28.8 ± 0.5 g
Daily Body Weight (mice; Male mice, Day 7): 29.2 ± 0.8 g
Adhesion Degree of Colon [1]: 0.8 ± 0.9 point
Colon weight to length ratio [1]: 120 ± 25 mg/cm
Ulcer area of colon [1]: 1.0 ± 1.6 cm^2
Body weight ([1]; Day 1): 122.1 ± 4.6 g
Body weight ([1]; Day 2): 123.0 ± 8.4 g
Body weight ([1]; Day 3): 127.1 ± 11.3 g
Body weight ([1]; Day 4): 132.0 ± 12.4 g
Body weight ([1]; Day 5): 143.9 ± 11.9 g
Body weight ([1]; Day 6): 141.5 ± 11.5 g
Body weight ([1]; Day 7): 162.8 ± 15.8 g
inhibition in vivo at 30 mg/kg [1, 2]: 66.9%
inhibition in vivo at 30 mg/kg [1, 3]: 83.3%
inhibition in vivo at 30 mg/kg [1, 4]: 57.6%

COCCN1C(=O)CCC(N2C(=O)c3c(F)c(F)c(F)c(F)c3C2=O)C1=O (centres unmarked) [Example 5, 4,5,6,7-tetrafluoro-2-(1-(2-methoxyethyl)-2,6-dioxopiperidin-3-yl)isoindolin-1,3-dione]
Adhesion Degree of Colon [1]: 0.8 ± 0.5 point
Colon weight to length ratio [1]: 99 ± 14 mg/cm
Ulcer area of colon [1]: 0.2 ± 0.5 cm^2
Body weight ([1]; Day 1): 126.7 ± 8.9 g
Body weight ([1]; Day 2): 125.0 ± 11.0 g
Body weight ([1]; Day 3): 126.9 ± 14.0 g
Body weight ([1]; Day 4): 133.9 ± 13.3 g
Body weight ([1]; Day 5): 141.9 ± 14.9 g
Body weight ([1]; Day 6): 146.9 ± 13.9 g
Body weight ([1]; Day 7): 159.7 ± 14.3 g
inhibition in vivo at 30 mg/kg [1, 2]: 62.2%
inhibition in vivo at 30 mg/kg [1, 3]: 91.7%
inhibition in vivo at 30 mg/kg [1, 4]: 74.1%

COCCN1C(=O)CCC(N2C(=O)c3ccc(O)c(N)c3C2=O)C1=O (centres unmarked) [Example 8, 4-amino-5-hydroxy-2-(1-(2-methoxyethyl)-2,6-dioxopiperidin-3-yl)isoindolin-1,3-dione]
Daily Body Weight (mice; Female mice, Day 1): 18.9 ± 0.9 g
Daily Body Weight (mice; Female mice, Day 2): 22.9 ± 0.9 g
Daily Body Weight (mice; Female mice, Day 3): 24.3 ± 0.7 g
Daily Body Weight (mice; Female mice, Day 4): 24.3 ± 1.1 g
Daily Body Weight (mice; Female mice, Day 5): 25.3 ± 1.4 g
Daily Body Weight (mice; Female mice, Day 6): 25.8 ± 1.5 g
Daily Body Weight (mice; Female mice, Day 7): 26.0 ± 2.5 g
Daily Body Weight (mice; Male mice, Day 1): 18.0 ± 1.3 g
Daily Body Weight (mice; Male mice, Day 2): 23.1 ± 0.9 g
Daily Body Weight (mice; Male mice, Day 3): 24.6 ± 1.0 g
Daily Body Weight (mice; Male mice, Day 4): 25.6 ± 1.7 g
Daily Body Weight (mice; Male mice, Day 5): 27.2 ± 2.2 g
Daily Body Weight (mice; Male mice, Day 6): 28.2 ± 2.2 g
Daily Body Weight (mice; Male mice, Day 7): 29.2 ± 2.6 g
Adhesion Degree of Colon [1]: 0.9 ± 0.6 point
Colon weight to length ratio [1]: 106 ± 13 mg/cm
Ulcer area of colon [1]: 0.2 ± 0.4 cm^2
Body weight ([1]; Day 1): 128.6 ± 5.3 g
Body weight ([1]; Day 2): 128.2 ± 9.2 g
Body weight ([1]; Day 3): 131.6 ± 13.5 g
Body weight ([1]; Day 4): 136.8 ± 17.4 g
Body weight ([1]; Day 5): 149.1 ± 16.7 g
Body weight ([1]; Day 6): 149.7 ± 16.8 g
Body weight ([1]; Day 7): 164.1 ± 17.9 g
inhibition in vivo at 30 mg/kg [1, 2]: 52.7%
inhibition in vivo at 30 mg/kg [1, 3]: 91.7%
inhibition in vivo at 30 mg/kg [1, 4]: 65.9%

COCCN1C(=O)CCC(F)(N2C(=O)c3cccc(N)c3C2=O)C1=O (centres unmarked) [Example 14, 4-amino-2-(1-(2-methoxyethyl)-3-fluoro-2,6-dioxopiperidin-3-yl)isoindolin-1,3-dione]
Adhesion Degree of Colon [1]: 0.8 ± 0.5 point
Colon weight to length ratio [1]: 102 ± 18 mg/cm
Ulcer area of colon [1]: 0.1 ± 0.4# cm^2
Body weight ([1]; Day 1): 126.2 ± 8.7 g
Body weight ([1]; Day 2): 125.1 ± 10.5 g
Body weight ([1]; Day 3): 129.5 ± 17.8 g
Body weight ([1]; Day 4): 136.5 ± 19.7 g
Body weight ([1]; Day 5): 146.4 ± 19.4 g
Body weight ([1]; Day 6): 147.6 ± 19.9 g
Body weight ([1]; Day 7): 165.7 ± 20.8 g
inhibition in vivo at 30 mg/kg [1, 2]: 62.2%
inhibition in vivo at 30 mg/kg [1, 3]: 95.8%
inhibition in vivo at 30 mg/kg [1, 4]: 70.6%
